Experimental data from patent US20250064766A1, “COMPOSITIONS AND METHODS FOR INCREASING ARGININE AND NITRIC OXIDE LEVELS” (priority 2023, published 2025).
≈ marks a conversion by molar mass, not a printed value.

Experiments:
[1] = Urine arginine and citrulline levels following stimulating agent dosing (LC-MRM/MS); format: in vivo
Protocol: The subjects in each of Groups A and B were given a single 6 g dose (powder dissolved in about 4 oz of water). A urine sample is taken from each subject prior to dosing (baseline) and 24 hours after dosing. The pre-dosing sample for each subject is used as a baseline from which to compare any increase or decrease in arginine and/or citrulline urine levels. • Group A (8 subjects): 6 g of citrulline HCl in 4 oz. of water • Group B (8 subjects): 6 g of L-Citrulline in 4 oz. of water
A third group, consisting of seven subjects, were given a single 2 g dose, otherwise following the same protocol: • Group C (7 subjects): 2 g of citrulline HCl in 4 oz. of water
Internal standard (IS) solutions of arginine-13C6 and citrulline-d7 were prepared in 6 percent trichloroacetic acid solution. Standard substances of arginine and citrulline HCl were precisely weighed and dissolved in Sigmatrix Urine Diluent to make their stock solutions, at 5 mM for each compound. The two stock solutions were then mixed at an equal volume and the mixed standard solution was step by step diluted with Sigmatrix Urine Diluent to have nine serially diluted calibration solutions. The concentrations of each compound in the calibration solutions ranged from 0.015 to 250 μM.
Urine samples were thawed at room temperature. After vortex-mixing for 5 s, 100 μL of each sample was precisely aliquoted into a 1.5-mL Eppendorf safe-lock tube. A mixed urine sample was pooled from 100 μL of each of 10 randomly selected among all the urine samples. Nine 100-μL aliquots of this pooled urine sample were processed along with the batch samples and the calibration solutions for the purpose of quality control (QC) to monitor the analytical variations of the sample preparation and the assay.
To 100 μL of urine or 100 μL of each calibration solution, 100 μL of the IS solution was added. The mixtures were vortexed for 10 s at 3,000 rpm and then sonicated in an ice-water bath for 1 min, followed by centrifugal clarification at 21,000 g and 10° C. for 10 min. 100 μL of the clear supernatant of each solution was mixed with 900 μL of water. 4-μL aliquots of the resultant sample and calibration solutions were injected to run liquid chromatography-multiple reaction monitoring mass spectrometry (LC-MRM/MS) on an Agilent 1290 UHPLC system connected to an Agilent 6495B triple-quadrupole mass spectrometer, which was operated with positive-ion electrospray ionization and in the MRM mode using two pairs of MRM ion transitions and other MS parameters for arginine and citrulline, respectively.
A Waters HSS T3 UPLC column (2.1*100 mm, 1.8 μm) was used for the chromatographic separation and a 5-mM heptafluorobutyric acid solution and acetonitrile were used as the mobile phase for binary-solvent gradient elution under optimized conditions. LC-MRM/MS raw data files were acquired and processed using the Agilent MassHunter® software suite. For concentration calculations, linearly regressed calibration curves of arginine and citrulline were constructed respectively with the data acquired from the calibration solutions. Concentrations of the two compounds detected in urine were calculated by interpolating the calibration curve with the peak area ratios areas measured from the sample solutions, in an appropriate concentration range for each compound.

[2] = Saturated solubility in deionized water at 62° F.; details: 16.7 °C, thermodynamic from solid
Protocol: Add five grams of conjugate or blend into 100 mL of water in a 250 ml Beaker. • 2. Record temperature of water before adding conjugate or blend. • 3. After conjugate is added to water, stir or swirl solution for 2 minutes exactly. • 4. If the solution is still cloudy or precipitate is present after 2 minutes, promptly transfer mixture into filter. • 5. If the solution is not cloudy and all of conjugate appears to have gone into solution, add another five grams of conjugate and repeat on from step 3. • 6. Record all data and amounts of conjugate added. • 7. Once solution with precipitate has been filtered, dry the filter with conjugate and use mass by difference to record dry mass of conjugate.
(§1) The solution was filtered, dried, and massed.
as §1, §1, §1, §1

[3] = Plasma arginine and citrulline levels following stimulating agent dosing (LC-MRM/MS); format: in vivo
Protocol: Plasma samples from each of Groups A, B, and C were taken from each subject prior to dosing (baseline) and at 30 minute intervals thereafter up to 180 minutes after dosing (30, 60, 90, 120, and 180 minutes). The pre-dosing sample for each subject is used as a baseline from which to compare any increase or decrease in arginine and/or citrulline plasma levels.
Internal standard (IS) solution of arginine-13C6 and citrulline-d7 were prepared in 6 percent trichloroacetic acid solution. Standard substances of arginine and citrulline were precisely weighed and dissolved in SigMatrix Ultra Serum Diluent to make their stock solutions, at 2000 or 4000 µM for each compound. The stock solutions were then mixed and further diluted with SigMatrix Ultra Serum Diluent to have 9 serially diluted calibration solutions. The concentrations of each compound in the calibration solutions ranged from 0.0008 to 50 μM.
Plasma samples were thawed at room temperature. After vortex-mixing for 5 s, 50 μL of each sample was precisely aliquoted into a 1.5-mL Eppendorf safe-lock tube. […] Twelve 50-μL aliquots of this pooled plasma sample were processed in parallel and analyzed periodically, along with the preparation and analysis of the batch samples and the calibration solutions for the purpose of quality control (QC) to monitor the analytical variations of the sample preparation and the assay. […]

[4] = single 6 g dose in 4 oz. of water, 24 hours after dosing
[5] = single 6 g dose in 4 oz. of water, Baseline (prior to dosing)

Compound	concentration at 24 h ([1]; human, urine, oral, single 2 g dose in 4 oz. of water, 24 hours after dosing, read-out: Citrulline Urine Levels Total Average Amount) [µM]	percent increase in urine citrulline 24 hours after dosing per gram ([1]; single 2 g dose)	Citrulline Urine Levels Total Average Amount ([1]; single 2 g dose in 4 oz. of water, Baseline (prior to dosing))	percent increase in urine citrulline 24 hours after dosing per gram ([1]; single 6 g dose)	Citrulline Urine Levels Total Average Amount [1, 4]	Citrulline Urine Levels Total Average Amount [1, 5]	solubility at 2 min [2] [mg/mL]	arginine production per dose, comparison of Groups A-C (plasma) ([3]; single 2 g dose, normalized per dose)	solubility at 2 min ([2]; water) [mg/mL]	amount of citrulline in plasma, comparison of Groups A-C ([3]; single 6 g dose)
Cl.NC(=O)NCCC[C@H](N)C(=O)O [Citrulline HCl, citrulline hydrochloride]	17900	about 300 percent/g	2,471.80 μM	about 300 percent/g	157,053.26 μM	8,773.04 μM	149	highest arginine production per dose		
NC(=O)NCCC[C@H](N)C(=O)O [L-Citrulline, L-citrulline, reference compound]				about 1000 percent/g	128,215.41 μM	2,042.91 μM			49.8 (≈ 284 mM)	much larger amount of citrulline in plasma
